What all share (assay type): cell-based
Test [1] addresses T1, HCA1 (Homo sapiens, UniProt Q9BXC0).
T1 construct: gene HCAR1; endogenous receptor in BT-474 cells
Description: AlphaScreen cAMP assay, inhibition of forskolin-induced cAMP in BT-474 cells, pertussis toxin sensitive. In general terms: Bead proximity is the source of the signal in Alpha formats.

Another test has as its target T2, HCA2 (Homo sapiens, UniProt Q8TDS4).
T2 construct: gene HCAR2; endogenous receptor in BT-474 cells
Described as above.

In test [2] the target is T3, HCA3 (Homo sapiens, UniProt P49019).
T3 construct: gene HCAR3; endogenous receptor in BT-474 cells
Description: cAMP decrease in BT-474 cells, blocked by pertussis toxin.

Test [3] concerns the target T1, HCA1. The test is described as above.
The target in test [4] is T3, HCA3. As to the kind of experiment: AlphaScreen cAMP assay, inhibition of forskolin-induced cAMP in BT-474 cells, pertussis toxin sensitive.

Data on five molecules can be found in article PMC4637315, “Hydroxycarboxylic acid receptors are essential for breast cancer cells to control their lipid/fatty acid metabolism” (Oncotarget, 2015).

Structures are written as SMILES.

T3 sequence (P49019 whole entry): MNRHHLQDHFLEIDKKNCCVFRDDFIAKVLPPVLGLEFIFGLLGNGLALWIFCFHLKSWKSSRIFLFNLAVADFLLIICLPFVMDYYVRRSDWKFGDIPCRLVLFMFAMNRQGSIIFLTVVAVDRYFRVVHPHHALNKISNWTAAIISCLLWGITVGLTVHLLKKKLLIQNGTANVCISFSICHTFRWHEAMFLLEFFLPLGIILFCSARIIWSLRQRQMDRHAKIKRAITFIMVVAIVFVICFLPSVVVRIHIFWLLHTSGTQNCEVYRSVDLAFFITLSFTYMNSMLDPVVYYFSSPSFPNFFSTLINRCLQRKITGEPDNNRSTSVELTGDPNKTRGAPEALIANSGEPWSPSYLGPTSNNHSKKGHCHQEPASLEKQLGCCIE
T1 sequence (Q9BXC0 whole entry): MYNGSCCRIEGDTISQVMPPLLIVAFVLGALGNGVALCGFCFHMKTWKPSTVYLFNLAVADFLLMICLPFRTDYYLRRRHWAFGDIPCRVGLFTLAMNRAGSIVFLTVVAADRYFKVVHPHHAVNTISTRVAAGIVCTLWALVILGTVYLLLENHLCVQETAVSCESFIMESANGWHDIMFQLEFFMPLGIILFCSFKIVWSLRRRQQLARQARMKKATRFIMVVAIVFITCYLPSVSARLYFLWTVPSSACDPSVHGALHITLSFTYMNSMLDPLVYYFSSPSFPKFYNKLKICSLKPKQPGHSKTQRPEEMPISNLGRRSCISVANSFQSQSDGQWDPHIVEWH
T2 sequence (Q8TDS4 whole entry): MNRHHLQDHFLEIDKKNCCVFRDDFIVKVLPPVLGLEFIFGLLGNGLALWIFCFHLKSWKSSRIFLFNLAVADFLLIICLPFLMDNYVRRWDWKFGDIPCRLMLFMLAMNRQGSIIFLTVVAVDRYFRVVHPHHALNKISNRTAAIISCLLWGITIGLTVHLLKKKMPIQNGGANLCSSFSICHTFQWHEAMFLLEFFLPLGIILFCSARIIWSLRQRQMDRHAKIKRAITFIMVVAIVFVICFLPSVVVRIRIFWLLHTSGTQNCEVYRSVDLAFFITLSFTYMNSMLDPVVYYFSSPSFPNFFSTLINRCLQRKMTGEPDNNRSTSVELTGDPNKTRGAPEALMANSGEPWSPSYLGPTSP

On to `C[C@H](O)C(=O)O` [lactate], for which the EC50 (as a rule, the concentration at which the effect is half-maximal) at HCA1 [1] stood at 3400 µM.

In turn, `CC(O)CC(=O)O` (centres unmarked) [3HB, 3-hydroxybutyrate] registered a 50% effective concentration (EC50) on HCA2 of 460 µM.

`CC(C)n1nnc2cc(C(=O)O)ccc21` [IPBT-5CA, 1-(1-methylethyl)-1H-benzotriazole-5-carboxylic acid]: the “cAMP decrease in BT-474 cells, blocked by pertussis toxin” value on HCA3 [2] is on record as “synthetic HCA agonist-induced decrease in intracellular cAMP levels in BT-474 cells (Figure 3D-F)”.

As to `O=C(O)c1cc(O)cc(O)c1` [3,5 DHB, 3,5-dihydroxybenzoic acid], on HCA1 [3], the “cAMP decrease in BT-474 cells, blocked by pertussis toxin” value is “synthetic HCA agonist-induced decrease in intracellular cAMP levels in BT-474 cells (Figure 3D-F)”.

On to `CCCCCC(O)CC(=O)O` (centres unmarked) [3HO, 3-hydroxyoctanoate], for which a half-maximal response at HCA3 [4] (EC50) required 9.5 µM.
